# Reference: US7320984B2, “Remedies or preventives for urinary frequency or urinary incontinence and morphinan derivatives having nitrogen-containing heterocyclic group” (Toray Industries, Inc., priority 2002, dated 2008)
# Test system: rhythmic bladder contractions in rats
# Experiment: Inhibitory effect against rhythmic bladder contractions in rats
# Assay type: in vivo
# Conditions: anesthetized female SD rats, intravenous
# Protocol: Inhibitory Effect Against Rhythmic Bladder Contractions in Rats
# Female SD rats were anesthetized with an intraperitoneal administration of urethane (1.0 g/kg). A polyethylene tube was inserted from the urethra to the bladder and the tube was fixed by ligation. Then physiological saline was appropriately infused (infusion rate: about 0.2 ml/min., maximum: about 1.5 ml/animal) through the tube to cause rhythmic bladder contractions. The rhythmic bladder contractions were monitored by measuring the intravesical pressure through a polyethylene tube inserted into the bladder. After confirming that stable rhythmic bladder contractions occurred at least 10 times, a vehicle containing a prescribed dose of a test compound was intravenously administration at a dose of 1 ml/kg. In cases where the intravesical pressure, within 10 minutes after the administration of the test compound, decreased to 50% or less of the intravesical pressure immediately […] the administration, the test compound was judged as having inhibitory effect against urinary bladder contractions, and the time period until the intravesical pressure returned to more than 50% was defined as inhibitory time of rhythmic bladder contractions. As the vehicle for administration, physiological saline was used for test compounds 4, 7, 8, 9, 10, 13, 29, 30, 31, 33, 34, 75, 76, 79, 80, 81, 82, 84, 89, 90, 91, 93, 94, 95, 110 and 111, aqueous 10% dimethylsulfoxide (DMSO) solution was used for test compounds 11, 12, 14, 15, 16, 17, 18, 20, 21, 23, 28, 46, 47, 50, 55, 56, 57, 58, 59, 60, 61, 62, 63, 64, 65, 66, 68, 69, 70, 71, 72, 73, 74, 77, 78, 83, 85, 86, 87, 88, 92, 96, 97, 98, 99, 100, […], 103, 104, 105, 106, 107, 108 and […], aqueous 20% dimethylsulfoxide (DMSO) solution was used for test compounds 1, 2, 67 and 101, and aqueous 5% xylitol solution was used for test compounds 5 and 35. The aqueous 10% DMSO solution, aqueous 20% DMSO solution and the aqueous 5% xylitol solution per se, which may influence on the inhibitory time of rhythmic bladder contractions, were also tested at a dose of 1 ml/kg. With any of the compounds, prolongation of the inhibitory time of rhythmic bladder contractions was observed when compared with that obtained in the group to which the vehicle alone was administered.
compound,measurement,setting,value
"CN1C(=O)CN([C@@H]2CC[C@@]3(O)[C@H]4Cc5ccc(O)c6c5[C@@]3(CCN4C)[C@H]2O6)c2ccccc21 [Compound 8, 4-(4,5α-epoxy-3,14-dihydroxy-17-methyl-morphinan-6β-yl)-1-methyl-3,4-dihydro-1H-quinoxalino-2-one]",Mean Inhibitory Time of Rhythmic Bladder Contractions,dose 0.3 mg/kg body weight,6.8 min
"COc1cccc2c1C(=O)N([C@@H]1CC[C@@]3(O)[C@H]4Cc5ccc(O)c6c5[C@@]3(CCN4CC3CC3)[C@H]1O6)C2=O [Compound 102, N-(17-cyclopropylmethyl-4,5α-epoxy-3,14-dihydroxy-morphinan-6β-yl)-3-methoxy-phthalimide]",Mean Inhibitory Time of Rhythmic Bladder Contractions,dose 0.1 mg/kg body weight,15.6 min
"O=C1C/C(=C\c2ccccc2)C(=O)N1[C@@H]1CC[C@@]2(O)[C@H]3Cc4ccc(O)c5c4[C@@]2(CCN3CC2CC2)[C@H]1O5 [Compound 21, N-(17-cyclopropylmethyl-4,5α-epoxy-3,14-dihydroxy-morphinan-6β-yl)-2-benzylidene-succinimide]",Mean Inhibitory Time of Rhythmic Bladder Contractions,dose 1.0 mg/kg body weight,19.0 min
"C=CCN1CC[C@]23c4c5ccc(O)c4O[C@H]2[C@H](N2C(=O)c4ccc(C)cc4C2=O)CC[C@@]3(O)[C@H]1C5 [Compound 56, N-(17-allyl-4,5α-epoxy-3,14-dihydroxymorphinan-6β-yl)-4-methylphthalimide]",Mean Inhibitory Time of Rhythmic Bladder Contractions,dose 0.1 mg/kg body weight,13.7 min
"O=C1[C@H]2CCCC[C@H]2C(=O)N1[C@@H]1CC[C@@]2(O)[C@H]3Cc4ccc(O)c5c4[C@@]2(CCN3CC2CC2)[C@H]1O5 [Compound 69, N-(17-cyclopropylmethyl-4,5α-epoxy-3,14-dihydroxymorphinan-6β-yl)-hexahydrophthalimide]",Mean Inhibitory Time of Rhythmic Bladder Contractions,dose 0.1 mg/kg body weight,15.7 min
"O=C1CCCN1[C@@H]1CC[C@@]2(O)[C@H]3Cc4ccc(O)c5c4[C@@]2(CCN3CC2CC2)[C@H]1O5 [Compound 46, 1-(17-cyclopropylmethyl-4,5α-epoxy-3,14-dihydroxy-morphinan-6β-yl)-pyrrolidin-2-one]",Mean Inhibitory Time of Rhythmic Bladder Contractions,dose 1.0 mg/kg body weight,20.0 min
"C=CCN1CC[C@]23c4c5ccc(O)c4O[C@H]2[C@@H](N2C(=O)c4ccccc4C2=O)CC[C@@]3(O)[C@H]1C5 [Compound 64, N-(17-allyl-4,5α-epoxy-3,14-dihydroxymorphinan-6α-yl)-phthalimide]",Mean Inhibitory Time of Rhythmic Bladder Contractions,dose 0.01 mg/kg body weight,20.8 min
"O=C1c2cc(F)ccc2CN1[C@@H]1CC[C@@]2(O)[C@H]3Cc4ccc(O)c5c4[C@@]2(CCN3CC2CC2)[C@H]1O5 [Compound 82, 2-(17-cyclopropylmethyl-4,5α-epoxy-3,14-dihydroxy-morphinan-6β-yl)-6-fluoro-2,3-dihydro-isoindol-1-one]",Mean Inhibitory Time of Rhythmic Bladder Contractions,dose 0.03 mg/kg body weight,19.9 min
"Oc1ccc2c3c1O[C@H]1[C@H](N4CCc5ccccc54)CC[C@@]4(O)[C@@H](C2)N(CCc2ccccc2)CC[C@]314 [Compound 5, 4,5α-epoxy-6β-indolino-17-phenethyl-morphinan-3,14-diol]",Mean Inhibitory Time of Rhythmic Bladder Contractions,dose 0.1 mg/kg body weight,9.9 min
"Nc1cccc2c1C(=O)N([C@@H]1CC[C@@]3(O)[C@H]4Cc5ccc(O)c6c5[C@@]3(CCN4CC3CC3)[C@H]1O6)C2=O [Compound 97, N-(17-cyclopropylmethyl-4,5α-epoxy-3,14-dihydroxy-morphinan-6β-yl)-3-amino-phthalimide]",Mean Inhibitory Time of Rhythmic Bladder Contractions,dose 0.1 mg/kg body weight,11.2 min
"C=CCN1CC[C@]23c4c5ccc(O)c4O[C@H]2[C@H](N2C(=O)C4=C(CCCC4)C2=O)CC[C@@]3(O)[C@H]1C5 [Compound 73, N-(17-allyl-4,5α-epoxy-3,14-dihydroxymorphinan-6β-yl)-3,4,5,6-tetrahydrophthalimide]",Mean Inhibitory Time of Rhythmic Bladder Contractions,dose 0.03 mg/kg body weight,13.4 min
"O=C1c2ccccc2S(=O)(=O)N1[C@@H]1CC[C@@]2(O)[C@H]3Cc4ccc(O)c5c4[C@@]2(CCN3CC2CC2)[C@H]1O5 [Compound 108, N-(17-cyclopropylmethyl-4,5α-epoxy-3,14-dihydroxy-morphinan-6β-yl)-O-sulfonebenzimide]",Mean Inhibitory Time of Rhythmic Bladder Contractions,dose 0.01 mg/kg body weight,25.6 min
